From patent US8546147B2, “Imidazo[1,2-α]pyrazin-3(7H)-one derivatives bearing a new electron-rich structure” (Universita degli Studi di Siena, priority 2009, dated 2013)
Like-named read-outs stand apart in the source and are kept apart here.

Legend:
[1] = cited from earlier work
RLuc = target: T1, RLuc (Renilla reniformis, UniProt P27652); conditions: cited from earlier work
T1 sequence (P27652 1-311): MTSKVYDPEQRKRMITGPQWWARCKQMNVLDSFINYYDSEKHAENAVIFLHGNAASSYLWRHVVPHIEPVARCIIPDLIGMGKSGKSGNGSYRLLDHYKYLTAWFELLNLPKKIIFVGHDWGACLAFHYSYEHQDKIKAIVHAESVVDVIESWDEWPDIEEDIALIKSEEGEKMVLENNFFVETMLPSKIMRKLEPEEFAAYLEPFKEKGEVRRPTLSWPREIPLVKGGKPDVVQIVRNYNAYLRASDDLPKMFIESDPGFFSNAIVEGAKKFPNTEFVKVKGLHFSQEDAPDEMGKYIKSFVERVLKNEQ

[2] = Chemiluminescence spectrum in DMSO (Shimadzu RF5001PC); type: physicochemical; conditions: for max. emission peak of chemiluminescent spectrum: 1-3 μg/mL in DMSO
Experimental: Chemiluminescence Spectrums.
Consequently, 10 μL of the stock solution were directly diluted in the quartz cuvette reader of the Fluorescence Spectrophotometer Shimadzu RF5001PC, containing 3 mL of DMSO, to obtain a final sample concentration of 1-3 μg/mL.

[3] = target: T2, Renilla Luciferase (RLuC) (Renilla reniformis, UniProt P27652)
T2 sequence (P27652 1-311): T1 sequence (P27652 1-311)
Experimental: Bioluminescence Spectrum.
Bioluminescence was measured according to standard procedures.^40

[4] = target: T3, RLuC (donor) and Green Fluorescent Protein GFP (acceptor) (Renilla reniformis, UniProt P27652); conditions: three different times, FIG. 8-10
T3 sequence (P27652 1-311): T1 sequence (P27652 1-311)

[5] = cited from earlier work; remark: listed apart in the source
[6] = first line of values, native = 1.00
[7] = second line of values (line with half-rise time in ms)

Row | Molecule | Half-rise Time ([1]; first line of values) [s] | Relative Intensity [1, 6] | Relative Luminescence capacity [1, 6] | Relative Intensity [1, 7] | Relative Luminescence capacity [1, 7] | Half-rise Time ([1]; second line of values) [s] | other results
1 | O=c1c(Cc2ccc(F)cc2)nc2c(CC3CCCC3)[nH]c(-c3ccc(O)cc3)cn1-2 [Coelenterazine fcp] | 0.4 to 0.8 | 135 | 0.57 |  |  |  | 
2 | O=c1c(Cc2ccccc2)nc2c(Cc3ccccc3)[nH]c(-c3ccccc3)cn1-2 [Coelenterazine 400a] |  |  |  |  |  |  | Rluc emission peak (RLuc): 395 nm
3 | Coelenterazine hcp | 0.15 to 0.3 | 190 | 0.67 | 500 | 0.65 | 0.002 to 0.005 | 
4 | O=c1c(Cc2ccccc2)nc2c(Sc3ccccc3)[nH]c(-c3ccccc3)cn1-2 [Compound 23f, 2-Benzyl-6-phenyl-8-(phenylthio)imidazo-[1,2-a]pirazin-3(7H)-one] |  |  |  |  |  |  | kinetic of chemiluminescence (in words) [2]: slower than 23b; max. emission peak of chemiluminescent spectrum [2]: 510 nm; emission shift between chemiluminescent spectrums ([2]; 23f versus 23b): about 45 nm; chemiluminescence intensity (in words) ([2]; compared with 23b): relative lowest intensity; bioluminescent emission [3]: about 415 nm; shift in respect of compound 23b [3]: about 30 nm; Shifts vs.23b ([3]; 1st measurement): 27.7 nm; Bioluminescent emission max ([3]; 1st measurement of triplicate): 415.1 nm; Shifts vs.23b ([3]; 2nd measurement): 27.4 nm; Bioluminescent emission max ([3]; 2nd measurement of triplicate): 419.4 nm; Shifts vs.23b ([3]; 3d measurement): 31.4 nm; Bioluminescent emission max ([3]; 3d measurement of triplicate): 424.3 nm; emission over time in BRET experiment (in words) [4]: long lasting
5 | Oc1ccc(-c2cn3c(O)c(Cc4ccccc4)nc3c(Cc3ccccc3)n2)cc1 [Coelenterazine h] | 0.4 to 0.80 | 10 | 0.82 | 16 | 0.75 | 0.006 to 0.03 | 
6 | O=c1c(Cc2ccc(O)cc2)nc2c(Cc3ccccc3)[nH]c(-c3ccc(O)cc3)cn1-2 [Compound 1, coelenterazine] | 0.4 to 0.8 | 1.00 | 1.00 |  |  | 0.006 to 0.03 | ΦCl ([5]; chemiluminescence quantum yield): 0.21%; Relative Light Yield ([5]; in brackets, relative to compound 1 (1.0)): 1.0
7 | O=c1c(Cc2ccccc2)nc2c(Sc3ccc(Cl)cc3)[nH]c(-c3ccccc3)cn1-2 [Compound 23n, 2-Benzyl-8-(4-chlorophenylthio)-6-phenylimidazo[1,2-a]pyrazin-3(7H)-one] |  |  |  |  |  |  | Chemil. Imax [2]: 505 nm
8 | Coelenterazine ip | 1 | 47 | 0.54 |  |  |  | 
9 | O=c1c(Cc2ccc(I)cc2)nc2c(Cc3ccccc3)[nH]c(-c3ccc(O)cc3)cn1-2 [Coelenterazine i] | 8 | 0.03 | 0.70 |  |  |  | 
10 | O=c1c(Cc2ccc(F)cc2)nc2c(Cc3ccccc3)[nH]c(-c3ccc(O)cc3)cn1-2 [Coelenterazine f] | 0.4 to 0.8 | 18 | 0.80 | 20 | 0.80 | 0.006 to 0.03 | 
11 | Oc1ccc(Cc2nc3c(Cc4ccccc4)nc4c(n3c2O)CCc2cc(O)ccc2-4)cc1 [Coelenterazine e] | 0.15 to 0.3 | 4 | 0.5 |  |  |  | 
12 | O=c1c(Cc2ccccc2)nc2c(Cc3ccccc3)[nH]c(-c3ccccc3)cn1-2 [Compound 23b, 2,8-Dibenzyl-6-phenylimidazo-[1,2-a]pyrazin-3(7H)-one] |  |  |  |  |  |  | max. emission peak of chemiluminescent spectrum [2]: 465 nm
13 | O=c1c(Cc2ccccc2)nc2c(Sc3ccc(Cl)cc3)[nH]c(-c3ccc(O)cc3)cn1-2 [Compound 23i, 2-Benzyl-8-(4-chlorophenylthio)-6-(4-hydroxyphenyl)imidazo[1,2-a]pyrazin-3(7H)-one] |  |  |  |  |  |  | Chemil. Imax [2]: 505 nm; Biolum. Imax [3]: 510 nm
14 | O=c1c(Cc2ccc(O)cc2)nc2c(CC3CCCC3)[nH]c(-c3ccc(O)cc3)cn1-2 [Coelenterazine cp] | 0.15 to 0.3 | 20 | 0.95 | 28 | 0.63 | 0.005 | 
15 | O=c1c(Cc2ccccc2)nc2c(Cc3ccccc3)[nH]c(-c3ccc4c(c3)OCO4)cn1-2 [Compound 23e, 2,8-Dibenzyl-6-[3,4-(methylendioxy)-phenyl]imidazo-[1,2-a]pirazin-3(7H)-one] |  |  |  |  |  |  | Shifts vs.23b ([3]; 1st measurement): 10.2 nm; Bioluminescent emission max ([3]; 1st measurement of triplicate): 397.6 nm; Shifts vs.23b ([3]; 2nd measurement): 5.5 nm; Bioluminescent emission max ([3]; 2nd measurement of triplicate): 397.5 nm; Shifts vs.23b ([3]; 3d measurement): 5.2 nm; Bioluminescent emission max ([3]; 3d measurement of triplicate): 398.2 nm; emission over time in BRET experiment (in words) [4]: decrease over time
16 | Coelenterazine n | 5 | 0.01 | 0.26 | 0.15 | 0.25 | 0.006 to 0.03 | 
